# Results from US11707442B2, “Antibacterial and antifungal compounds” (The General Hospital Corporation, priority 2015, dated 2023).
# Like-named read-outs stand apart in the source and are kept apart here.
# What was measured:
# [1] = tested on: Salmonella typhimurium strains TA 1535 and TA 1538; conditions: With S9; 5 μg/plate
# Experimental: The Ames test was conducted using histidine auxotroph Salmonella typhimurium strains TA 1535 and TA 1538. To test mutagenic potential of the synthetic retinoids themselves and their metabolic products, the assay was conducted both with and without rat liver S9 fraction (Moltox, Boone, N.C., USA). Briefly, 100 μl of bacterial overnight cultures was added into 500 μl of phosphate buffer containing a range of amounts of the retinoids dissolved in 10 μl DMSO and with or without 4% S9. After incubation at 37° C. for 1 h, the samples were added into 2 ml of soft agar including 0.5 mM of histidine/biotin, mixed, and poured onto minimal glucose agar plates. The plates were incubated at 37° C. for 48 h, and the revertant colonies were counted. 10 μl DMSO was used as a negative control. […] 5 μg/plate 2-aminoanthracene was used as a positive control for both strains in the metabolic activation system. The test was performed in triplicate.
# [2] = tested on: Candida tropicalis; assay: MIC against fungal cultures; assay type: cell-based
# Experimental: (§1) The cells were harvested by centrifugation at 4000 RPM for 5 minutes and washed with PBS; the cell pellets were resuspended in RPMI 1640 medium. The cell count was calculated with a hemocytometer and adjusted to be between 5.0×10^4 to 2.5×10^6 cells/ml. A tested compound was prepared and added to RPMI 1640 medium at 2× the final concentration. […] For C. albicans, OD595 was read after incubating the plate at 35° C. for 24 hrs. For KN99α, OD595 was read after incubating the plate at 35° C. for 70 hrs in accordance with CLSI document M27-A2.
# [3] = tested on: C. neoformans; assay: MIC against fungal cultures; assay type: cell-based; conditions: Cryptococcus neoformans, read-out: Drug MIC
# Experimental: as §1
# [4] = tested on: Candida glabrata; assay: MIC against fungal cultures; assay type: cell-based; conditions: Nakaseomyces glabratus, read-out: Drug MIC
# [5] = tested on: E. faecium; assay: MIC, broth microdilution; assay type: cell-based, Enterococcus faecium; conditions: Enterococcus faecium, read-out: Drug MIC
# Description: (§2) Bacterial strains and growth conditions and persister isolation: methicillin-resistant S. aureus (MRSA) strain MW2 BAA-1707, vancomycin-resistant S. aureus strain VRS 1, 11 clinical S. aureus isolates, 8 clinical Enterococcus faecium isolates, Klebsiella pneumoniae WGLW2 (BEI Resources, Manassas, Va., USA), Acinetobacter baumannii ATCC 17978, Pseudomonas aeruginosa PA14, and Enterobacter aerogenes ATCC 13048 were used to test antimicrobial activity (See Table 1a). S. aureus and E. faecium strains were grown in tryptic soy broth (TSB) (BD, Franklin Lakes, N.J., USA) or brain-heart infusion (BHI) broth (BD, Franklin Lakes, N.J., USA), respectively at 37° C. at 225 rpm. K. pneumoniae, A. baumannii, P. aeruginosa, and E. aerogenes were grown in Luria Bertani (LB) broth (BD, Franklin Lakes, N.J., USA).
# (§3) To test the bacterial MICs for compounds described herein, the total volume in each well was 100 μl of test compounds and bacterial cells in MH broth. […] The bacterial concentration was adjusted to an initial OD600 of 0.03. After incubation at 35° C. for 18 hrs, the absorbance was measured at 595 nm in accordance with CLSI document M07-A8. The MICs of antibiotics were determined by the standard microdilution method recommended by the Clinical and Laboratory Standards Institute.
# [6] = tested on: S. aureus; assay: Minimal inhibitory concentration (MIC), broth microdilution; assay type: cell-based, Staphylococcus aureus
# Description: as §2, §3
# [7] = ATCC13803, Candida tropicalis ATCC 13803 (Reference), read-out: Drug MIC
# [8] = Candida tropicalis clinical isolate 11, read-out: Drug MIC
# [9] = Candida tropicalis clinical isolate 85-S, read-out: Drug MIC
# [10] = Candida tropicalis clinical isolate 172-S, read-out: Drug MIC
# [11] = C. neoformans clinical isolate 41291
# [12] = C. neoformans clinical isolate 41292
# [13] = C. neoformans clinical isolate 41294
# [14] = C. neoformans clinical isolate 41295
# [15] = C. neoformans clinical isolate 41296
# [16] = C. neoformans clinical isolate 41297
# [17] = C. neoformans clinical isolate 41298
# [18] = C. neoformans clinical isolate 41299
# [19] = C. neoformans clinical isolate 41300
# [20] = C. neoformans clinical isolate BF113
# [21] = C. neoformans clinical isolate BF114
# [22] = ATCC90030, Candida glabrata ATCC 90030 (Reference)
# [23] = Candida glabrata clinical isolate 6891
# [24] = Candida glabrata clinical isolate 6922
# [25] = Candida glabrata clinical isolate 6927
# [26] = Candida glabrata clinical isolate 6930
# [27] = Candida glabrata clinical isolate 6931
# [28] = Candida glabrata clinical isolate 6932
# [29] = Candida glabrata clinical isolate 6943
# [30] = Candida glabrata clinical isolate 7110
# [31] = Candida glabrata clinical isolate 7117
# [32] = Candida glabrata clinical isolate 7221
# [33] = Candida glabrata clinical isolate 7255
# [34] = Candida glabrata clinical isolate 7815
# [35] = Candida glabrata clinical isolate 7869
# [36] = Candida glabrata clinical isolate 7871
# [37] = Candida glabrata clinical isolate 8066
molecule,measurement,setting,value
"Nc1ccc2cc3ccccc3cc2c1 [2AA, 2-Aminoanthracene]",Number of revertants (T1535),[1],263 ± 15
same,Number of revertants (T1538),[1],2568 ± 108
C[C@@H]1[C@H](O)[C@@H](C)/C=C/C=C/C=C/C=C/C=C/C=C/C=C/[C@H](O[C@@H]2O[C@H](C)[C@@H](O)[C@H](N)[C@@H]2O)C[C@@H]2O[C@](O)(C[C@@H](O)C[C@@H](O)[C@H](O)CC[C@@H](O)C[C@@H](O)CC(=O)O[C@H]1C)C[C@H](O)[C@H]2C(=O)O [Amphotericin B],MIC,[2]; [7],1 µg/mL
same,MIC,[2]; [8],0.5 µg/mL
same,MIC,[2]; [9],0.125 µg/mL
same,MIC,[2]; [10],0.5 µg/mL
same,MIC,[3]; [11],0.125 µg/mL
same,MIC,[3]; [12],0.125 µg/mL
same,MIC,[3]; [13],0.125 µg/mL
same,MIC,[3]; [14],0.125 µg/mL
same,MIC,[3]; [15],0.125 µg/mL
same,MIC,[3]; [16],0.125 µg/mL
same,MIC,[3]; [17],0.125 µg/mL
same,MIC,[3]; [18],0.125 µg/mL
same,MIC,[3]; [19],0.125 µg/mL
same,MIC,[3]; [20],0.125 µg/mL
same,MIC,[3]; [21],< 0.0625 µg/mL
same,MIC,[4]; [22],1 µg/mL
same,MIC,[4]; [23],0.5 µg/mL
same,MIC,[4]; [24],0.5 µg/mL
same,MIC,[4]; [25],1 µg/mL
same,MIC,[4]; [26],1 µg/mL
same,MIC,[4]; [27],0.5 µg/mL
same,MIC,[4]; [28],0.5 µg/mL
same,MIC,[4]; [29],1 µg/mL
same,MIC,[4]; [30],0.5 µg/mL
same,MIC,[4]; [31],0.5 µg/mL
same,MIC,[4]; [32],0.5 µg/mL
same,MIC,[4]; [33],1 µg/mL
same,MIC,[4]; [34],0.5 µg/mL
same,MIC,[4]; [35],1 µg/mL
same,MIC,[4]; [36],1 µg/mL
same,MIC,[4]; [37],0.5 µg/mL
OC(Cn1cncn1)(Cn1cncn1)c1ccc(F)cc1F [Fluconazole],MIC,[2]; [7],8 µg/mL
same,MIC,[2]; [8],0.5 µg/mL
same,MIC,[2]; [9],1 µg/mL
same,MIC,[2]; [10],2 µg/mL
same,MIC,[3]; [11],8 µg/mL
same,MIC,[3]; [12],64 µg/mL
same,MIC,[3]; [13],8 µg/mL
same,MIC,[3]; [14],64 µg/mL
same,MIC,[3]; [15],> 64 µg/mL
same,MIC,[3]; [16],8 µg/mL
same,MIC,[3]; [17],8 µg/mL
same,MIC,[3]; [18],4 µg/mL
same,MIC,[3]; [19],> 64 µg/mL
same,MIC,[3]; [20],16 µg/mL
same,MIC,[3]; [21],64 µg/mL
same,MIC,[4]; [22],8 µg/mL
same,MIC,[4]; [23],2 µg/mL
same,MIC,[4]; [24],2 µg/mL
same,MIC,[4]; [25],2 µg/mL
same,MIC,[4]; [26],1 µg/mL
same,MIC,[4]; [27],0.5 µg/mL
same,MIC,[4]; [28],0.5 µg/mL
same,MIC,[4]; [29],8 µg/mL
same,MIC,[4]; [30],1 µg/mL
same,MIC,[4]; [31],2 µg/mL
same,MIC,[4]; [32],1 µg/mL
same,MIC,[4]; [33],2 µg/mL
same,MIC,[4]; [34],2 µg/mL
same,MIC,[4]; [35],4 µg/mL
same,MIC,[4]; [36],2 µg/mL
same,MIC,[4]; [37],2 µg/mL
O=C(N[C@H](CO)[C@H](O)c1ccc([N+](=O)[O-])cc1)C(Cl)Cl [chloramphenicol],MIC,[5]; Enterococcus faecium clinical isolate C68 (Table 6),16 µg/mL
same,MIC,[5]; Enterococcus faecium clinical isolate D14 (Table 6),8 µg/mL
same,MIC,[5]; Enterococcus faecium clinical isolate D24 (Table 6),4 µg/mL
same,MIC,[5]; Enterococcus faecium clinical isolate D25 (Table 6),8 µg/mL
same,MIC,[5]; Enterococcus faecium clinical isolate D29 (Table 6),64 µg/mL
same,MIC,[5]; Enterococcus faecium clinical isolate W312 (Table 6),8 µg/mL
same,MIC,[5]; Enterococcus faecium clinical isolate WC176 (Table 6),16 µg/mL
Defensin 1: a CAMP (cationic antimicrobial peptide) secreted by the host immune system,MIC,[6]; S. aureus MW2 mutant SP1-8 (graS),8 µg/mL
same,MIC,"[6]; S. aureus MW2 mutant SP1-48 (graS, manA)",8 µg/mL
same,MIC,"[6]; S. aureus MW2 mutant SP1-74 (graS, manA, MW2474)",8 µg/mL
same,MIC,"[6]; S. aureus MW2 mutant SP1-100 (graS, manA, MW2474)",8 µg/mL
same,MIC,[6]; S. aureus MW2 mutant SP2-13 (yjbH),16 µg/mL
same,MIC,"[6]; S. aureus MW2 mutant SP2-52 (yjbH, dltB)",8 µg/mL
same,MIC,"[6]; S. aureus MW2 mutant SP2-59 (yjbH, dltB, manA)",8 µg/mL
same,MIC,"[6]; S. aureus MW2 mutant SP2-65 (yjbH, dltB, manA, MW1685)",8 µg/mL
same,MIC,"[6]; S. aureus MW2 mutant SP2-100 (yjbH dltB, manA, MW1685)",8 µg/mL
same,MIC,[6]; S. aureus MW2 serial passage culture SP1-1 (no mutated gene),16 µg/mL
same,MIC,[6]; S. aureus MW2 serial passage culture SP2-1 (no mutated gene),16 µg/mL
